Source: US20180235213A1, “PLANT HORMONE APPLICATION” (The State of Israel Ministry of Agriculture & Rural …, priority 2015, published 2018)

Assays:
[1] = tested on: olive seedling; assay: Application to olive seedling stem under greenhouse conditions (parafilm, flexible or rigid tubes); conditions: rigid tubes
Procedure: EGO10 either with PVAc, or HPC+glycerin were applied on olive seedling stem by the use of parafilm cover as the apparatus, under greenhouse conditions (FIG. 15). Greenhouse conditions include controlled room temperature of 25° C. In each experiment, 10 plants were used for each treatment. The substances were applied on the stem by a spatula and covered with parafilm.
In attempt to improve the performance of the apparatus, different substances and different cover were used. Four formulations were developed and tested. These formulations are based on polysaccharide-sorbent-humidifier substances while the main difference between them is the viscosity of the final product and the ability to retain and release of the active ingredient (EGO 10). […] The cover consisted of a flexible plastic tube that was cut (FIG. 16A), placed on the seedling stem (FIG. 16B) and wrapped with transparent plaster (FIG. 16C). The plastic tubes were filled with the experimental material (FIG. 16D). Moist cotton was placed on both sides of the tubes to minimize water evaporation (FIG. 16E and FIG. 16F). Bud outgrowth was measured for 30 days.
Rigid plastic tubes were tested in order to determine their efficiency as a delivery device for application of the hormone formulations to plants. At first, eppendorf tubes served as prototype. The tubes ware cut from top to bottom and placed on the stem of seedlings. Each tube was sealed with a small moist cotton at the bottom, filled with 1 ml of the examined material and finally covered with transparent plastic tape (FIGS. 17A-17E). The tubes were filled with (HPC+glycerin), or PVAc and EGO10 In each experiment, 10 plants were used for each treatment. Greenhouse conditions include controlled room temperature of 25° C.
EGO10 (10 μM) or acetone control together with HPC+glycerin or PVAc were applied on the stem of olive cuttings by the use of rigid plastic tubes as described in Example 10 above.
Bud outgrowth of olive cuttings was measured until day 30.

[2] = tested on: olive seedlings; assay: Application via rigid tubes to olive seedlings under commercial nursery conditions; assay type: in vivo, Olea europaea L.; conditions: 50 μM with HPC+glycerin
Procedure: Experiments were performed in AGROGOLD nurseries under commercial nursery conditions, which include nethouse, 40% shed without temperature control. The tested formulations were applied in rigid tubes. […] The tube was sealed and fixed to the plant by cello tape. The tube was completely filled with ˜1 ml of the experimental formulation and then the top was covered with cotton (FIGS. 20A-20F). Each experiment included 10 olive plants for each treatment. The number of wake up buds was counted 75 days following application and the seedlings architecture, general growth and development were examined.
The bud growth effect of EGO10 (50 μM) or acetone control, each supplied together with HPC+glycerin on the stem of the olive cuttings was tested under the nursery conditions.

[3] = tested on: Roses (Rosa Hybrida); assay: EGO10 collar application to roses; assay type: in vivo
Procedure: Three replicates on experiments were done in two commercial plots. EGO10 was applied at the indicated concentrations as a collar in Eppendorf tube (FIG. 24).
HPC+glycerin and EGO10 (25 or 50 μM), provided in rigid tubes, were applied as described above (Example 13) to roses (Rosa hybrid golden gate). 20 days following application of the formulation by the delivery device, the length of axillary buds (in centimeters) was measured and the number of lateral buds was counted.

[4] = tested on: Hypericum plants; assay: EGO10 collar and granules application to Hypericum plants; assay type: in vivo, Hypericum calycinum or Hypericum perforatum
Procedure: EGO10 (25 and 50 μM) with HPC+glycerin were applied in rigid tubes, as described above (Example 13) to Hypericum calycinum or Hypericum perforatum (Ivory Spices of Danziger, result of breeding for ornamental). Two replicates on experiments were done in the greenhouse. EGO10 was applied at the indicated concentrations as a collar. Also, EGO10 was applied in another, new way of application—as granules of slow release of 3×10^−8 M—that were applied in the soil, close to the root zone. […] An example to the results of the collar treatment is in FIG. 27.

[5] = tested on: Almond; assay: EGO10 granules and collar application to almond in commercial nursery; assay type: in vivo, Prunus dulcis
Procedure: Two replicates on experiments were performed in commercial nursery.

[6] = tested on: Koroneiki olives; assay: EGO10 collar and granules application to Koroneiki olives; assay type: in vivo, Olea europaea L.; conditions: collar of 50 μM
Procedure: Since Koroneiki olives are one of the most abundant cultivars worldwide, the effect of application of collar of 50 μM and granules that release 3×10^−8 M on development of side branches in this cultivar was examined.

[7] = tested on: Tomato (Ikram cultivar); assay: EGO10 collar combined with auxin spray on tomato; assay type: in vivo, Solanum lycopersicum
Procedure: The effect of EGO 10 combined with auxin was tested. […] Collar was applied 50 μM of EGO10 (FIG. 32) with a auxin daily spray (IAA) 5 ppm on the shoot tip. Also treatment with only the 50 μM collar of EGO10, an IAA treatment with no collar as a control for the auxin treatment and a control with no treatment were applied. Each treatment consisted of 10-12 plants, blocks of 4 plants were randomly distributed in the greenhouse.

## CC1=C[C@H](O/C=C2\Cc3c(n(C)c4ccccc34)C2=O)OC1=O [EGO10]
[1]; 10 μM with HPC+glycerin, greenhouse
  plant growth: without delaying plant growth
[1]; 10 μM with HPC+glycerin, greenhouse, 30 days, not significantly different from control
  bud outgrowth: some inhibition of bud outgrowth
[1]; 50 μM with HPC+glycerin
  growth of treated olive buds: grew properly
[1]; 50 μM with HPC+glycerin, until day 30, vs acetone+HPC+glycerin
  bud outgrowth: significantly inhibits bud outgrowth
[2]
  application site (bark and vascular system) after removal of the apparatus: unharmed and functional
[2]; 75 days
  seedling outgrowth: not inhibited
[2]; rigid tubes, 75 days, vs acetone+HPC+glycerin
  number of wake up buds (bud outgrowth): inhibits bud outgrowth significantly
[2]; control seedlings bushy
  plant architecture: one or two leading branches
[3]; 25 or 50 μM with HPC+glycerin, collar in rigid tubes, 20 days
  lateral branching: clear tendency of reduction of lateral branching
[3]; collar, 25 or 50 μM
  development of water branches: did not hinder development
[4]; 50 μM as collar in Eppendorf tubes, not significantly different
  no. of axillary branches: marked reduction in the no. of axillary branches
[4]; granules of slow release of 3×10^−8 M in the soil
  no. of axillary branches: did not result with substantial changes in the no. of axillary branches
[5]; 3×10^−8 M as granules of controlled release
  number of axillary branches: marked and significant reduction in the number of axillary branches
[5]; both granules and collar
  number of axillary branches: reduced the inhibitory effect of the granules on side branches
[6]
  side branches development: effective in preventing side branches development
[7]; 50 μM collar only
  bud outgrowth above the collar: more moderate and not consistent respond
[7]; 50 μM collar with auxin (IAA) daily spray 5 ppm
  bud outgrowth above the collar: clear inhibition of bud outgrowth
